Assay results reported in ChEMBL document CHEMBL1141049, “Synthesis and structure-activity relationship of N-alkyl Gly-boro-Pro inhibitors of DPP4, FAP, and DPP7” (Bioorg Med Chem Lett, 2005).

Assays:
Dipeptidyl peptidase 4 = Dipeptidyl peptidase 4 (Homo sapiens, UniProt P27487); test: Inhibitory activity against human DPP4 using Gly-Pro-AMC in fluorometric assay
Dipeptidyl peptidase 2 [1] = molecular target: T1, Dipeptidyl peptidase 2 (Homo sapiens, UniProt Q9UHL4); test: Inhibitory activity against human DPP7 using Ala-Pro-AMC in fluorometric assay
[2] = molecular target: Prolyl endopeptidase FAP (Homo sapiens) (UniProt Q12884); test: Inhibition of human FAP using Lys-Pro-AMC in fluorometric assay at 33 uM
Prolyl endopeptidase FAP = molecular target: T2, Prolyl endopeptidase FAP (Homo sapiens, UniProt Q12884); test: Inhibitory activity against human FAP using Lys-Pro-AMC in fluorimetric assay; No inhibition
T2 sequence (Q12884 whole entry): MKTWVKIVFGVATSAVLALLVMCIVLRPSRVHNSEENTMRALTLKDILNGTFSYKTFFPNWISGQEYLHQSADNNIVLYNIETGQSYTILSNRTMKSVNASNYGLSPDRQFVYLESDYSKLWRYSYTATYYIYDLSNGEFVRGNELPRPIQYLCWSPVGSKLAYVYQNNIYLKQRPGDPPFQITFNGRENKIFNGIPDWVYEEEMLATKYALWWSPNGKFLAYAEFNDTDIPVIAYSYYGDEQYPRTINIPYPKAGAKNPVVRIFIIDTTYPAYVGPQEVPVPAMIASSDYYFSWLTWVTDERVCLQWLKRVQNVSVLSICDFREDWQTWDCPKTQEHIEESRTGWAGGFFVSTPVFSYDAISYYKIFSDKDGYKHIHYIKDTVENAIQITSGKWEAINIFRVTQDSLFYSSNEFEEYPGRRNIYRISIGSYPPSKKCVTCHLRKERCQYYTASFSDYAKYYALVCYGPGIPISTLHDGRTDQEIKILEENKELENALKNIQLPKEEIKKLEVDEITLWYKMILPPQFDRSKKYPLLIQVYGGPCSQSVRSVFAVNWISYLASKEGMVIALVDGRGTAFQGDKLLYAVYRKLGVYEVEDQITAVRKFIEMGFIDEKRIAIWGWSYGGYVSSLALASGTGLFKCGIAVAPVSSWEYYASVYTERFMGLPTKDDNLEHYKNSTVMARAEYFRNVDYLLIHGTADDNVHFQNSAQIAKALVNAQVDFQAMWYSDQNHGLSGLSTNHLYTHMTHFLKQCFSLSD

Dipeptidyl peptidase 2 [3] = molecular target: T1, Dipeptidyl peptidase 2; test: Inhibitory activity against human DPP7 using Ala-Pro-AMC in fluorometric assay; No inhibition

Dipeptidyl peptidase 4, sequence (P27487 whole entry): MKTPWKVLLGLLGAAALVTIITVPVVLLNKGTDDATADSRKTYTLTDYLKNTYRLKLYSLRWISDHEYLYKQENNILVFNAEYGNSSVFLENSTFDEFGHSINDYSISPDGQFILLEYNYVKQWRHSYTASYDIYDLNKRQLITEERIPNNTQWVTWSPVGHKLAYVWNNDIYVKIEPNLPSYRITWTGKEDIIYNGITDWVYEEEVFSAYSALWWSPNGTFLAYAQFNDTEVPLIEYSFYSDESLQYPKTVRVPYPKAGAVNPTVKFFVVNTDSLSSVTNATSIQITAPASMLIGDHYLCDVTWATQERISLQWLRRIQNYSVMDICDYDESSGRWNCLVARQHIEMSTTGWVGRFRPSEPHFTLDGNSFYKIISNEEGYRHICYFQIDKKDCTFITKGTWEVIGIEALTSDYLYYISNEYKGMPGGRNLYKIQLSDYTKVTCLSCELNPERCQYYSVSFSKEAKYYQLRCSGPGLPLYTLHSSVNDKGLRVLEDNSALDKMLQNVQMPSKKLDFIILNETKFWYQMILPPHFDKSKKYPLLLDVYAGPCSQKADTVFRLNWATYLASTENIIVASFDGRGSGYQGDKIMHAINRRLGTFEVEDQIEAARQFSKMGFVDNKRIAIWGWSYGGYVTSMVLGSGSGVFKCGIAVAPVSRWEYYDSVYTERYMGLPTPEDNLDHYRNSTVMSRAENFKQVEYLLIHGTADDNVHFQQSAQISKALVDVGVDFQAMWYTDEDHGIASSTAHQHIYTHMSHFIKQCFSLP

IC50 (Dipeptidyl peptidase 4)	IC50 (Dipeptidyl peptidase 2 [1])	inhibition [2]	Compound	IC50 (Prolyl endopeptidase FAP)	IC50 (Dipeptidyl peptidase 2 [3])
58 nM	2.2 nM	–	O=C(CNC1CCCCCCCCC1)N1CCC[C@H]1B(O)O	–	–
130 nM	570 nM	30%	O=C(CNC1CC1)N1CCC[C@H]1B(O)O	–	–
–	6.3 nM	–	C[C@@H](N)C(=O)N1CCC[C@H]1B(O)O	–	–
8 nM	420 nM	–	O=C(CNC12CC3CC(CC(C3)C1)C2)N1CCC[C@@H]1B(O)O	–	–
61 nM	1 nM	–	CCCCCC12CCC(NCC(=O)N3CCC[C@H]3B(O)O)(CC1)CC2	–	–
12 nM	120 nM	–	O=C(CNC1C2CC3CC(C2)CC1C3)N1CCC[C@@H]1B(O)O (stereo partly specified)	–	–
27 nM	4.1 nM	–	O=C(CNC1CCCCC1)N1CCC[C@H]1B(O)O	–	–
25 nM	15 nM	–	O=C(CNC1CCCC1)N1CCC[C@H]1B(O)O	–	–
25 nM	8 nM	–	O=C(CNC1CC2CCCC1C2)N1CCC[C@H]1B(O)O (stereo partly specified)	–	–
560 nM	35 nM	–	CC12CC3(C)CC(C)(C1)CC(NCC(=O)N1CCC[C@@H]1B(O)O)(C2)C3	–	–
7.8 nM	1.8 nM	–	O=C(CNC1CCCCCC1)N1CCC[C@H]1B(O)O	–	–
1600 nM	4600 nM	–	CN(CC(=O)N1CCC[C@@H]1B(O)O)C1C2CC3CC(C2)CC1C3 (stereo partly specified)	–	–
75 nM	140 nM	–	O=C(CNC1CCC1)N1CCC[C@H]1B(O)O	–	–
27 nM	4 nM	–	O=C(CNC1CCCCCCC1)N1CCC[C@H]1B(O)O	–	–

Compound	IC50 (Dipeptidyl peptidase 4)	IC50 (Dipeptidyl peptidase 2 [1])	inhibition [2]	IC50 (Prolyl endopeptidase FAP)	IC50 (Dipeptidyl peptidase 2 [3])
CC(C)[C@@H](NC1CCCCC1)C(=O)N1CCC[C@H]1B(O)O	16000 nM	–	–	Not Active	Not Active
